We go through 13 compounds from ChEMBL document CHEMBL3045239, “Synthesis and antimicrobial evaluation of novel benzo[b]thiophenes comprising -lactam nucleus” (2012).

Common to all, as to assay type: functional
Experiment [1] has as its system Trichophyton longifusum. Put plainly: Antimicrobial activity against Trichophyton longifusum at 200 ug/ml after 7 days by agar plate method. The settings on record: 168 h.
Experiment [2] has as its system Fusarium solani. Put plainly: Antimicrobial activity against Fusarium solani at 200 ug/ml after 7 days by agar plate method. To be noted: 168 h.
Experiment [3] has as its system Candida albicans. Put plainly: Antimicrobial activity against Candida albicans at 200 ug/ml after 7 days by agar plate method. The settings on record: 168 h.
Experiment [4] deals with Microsporum canis. Kind of experiment: Antimicrobial activity against Arthroderma otae at 200 ug/ml after 7 days by agar plate method. To be noted: 168 h.
In experiment [5] the test system is Bacillus subtilis. Kind of experiment: Antimicrobial activity against Bacillus subtilis at 1 mg/ml after 24 hr by agar well diffusion method. To be noted: read-out: DIZ.
The test system of experiment [6] is Staphylococcus aureus. Kind of experiment: Antimicrobial activity against Staphylococcus aureus at 1 mg/ml after 24 hr by agar well diffusion method. The settings on record: read-out: DIZ.
The subject of experiment [7] is Pseudomonas aeruginosa. Put plainly: Antimicrobial activity against Pseudomonas aeruginosa at 1 mg/ml after 24 hr by agar well diffusion method. To be noted: read-out: DIZ. (A growth-free zone around the sample is the usual read-out of agar diffusion tests.)
The subject of experiment [8] is Escherichia coli. Kind of experiment: Antimicrobial activity against Escherichia coli at 1 mg/ml after 24 hr by agar well diffusion method. The settings on record: read-out: DIZ.
The test system of experiment [9] is Micrococcus luteus. Put plainly: Antimicrobial activity against Micrococcus luteus at 1 mg/ml after 24 hr by agar well diffusion method. To be noted: read-out: DIZ.

Regarding `Clc1ccc(COC(Cn2ccnc2)c2ccc(Cl)cc2Cl)c(Cl)c1` (stereo not given) [MICONAZOLE], the inhibition at 200 µg/mL was found to be 100% in [1], 90% in [2], 90% in experiment [3] and 90% in experiment [4].
As for `COc1cc([C@@H]2[C@H](Oc3ccc(Cl)cc3Cl)C(=O)N2c2sc3c(c2C#N)C=C(/C=C/c2c(C)nn(-c4ccccc4)c2Cl)CC3(C)C)cc(OC)c1OC`, the zone of inhibition at 1000 µg/mL is 11.6 mm in experiment [5]; 10.6 mm in experiment [6]; 11.7 mm in experiment [7]; 12.9 mm in experiment [8]; less than 10 mm in experiment [9]. This compound also showed an inhibition at 200 µg/mL in [3] of 50%.
Consider `Cc1nn(-c2ccccc2)c(Cl)c1/C=C/C1=Cc2c(sc(N3C(=O)[C@@H](Oc4ccc(Cl)cc4Cl)[C@H]3c3ccc([N+](=O)[O-])cc3)c2C#N)C(C)(C)C1` (relative stereo), for which the zone of inhibition at 1000 µg/mL is 11.2 mm in experiment [5]; less than 10 mm in [6]; 12.1 mm in [7]; 14 mm in experiment [8]; less than 10 mm in [9].
As for `C=CC1=C(C(=O)O)N2C(=O)[C@@H](NC(=O)/C(=N\OCC(=O)O)c3csc(N)n3)[C@H]2SC1` [CEFIXIME], the zone of inhibition at 1000 µg/mL in [5] was found to be 28.7 mm; in experiment [6], 36.1 mm; in [7] it was 17.8 mm; in experiment [8], 30 mm; in experiment [9], 34.1 mm.
Turning to `O=C(N[C@H](CO)[C@H](O)c1ccc([N+](=O)[O-])cc1)C(Cl)Cl` [CHLORAMPHENICOL], the zone of inhibition at 1000 µg/mL in experiment [5] was determined as 18.8 mm; in experiment [6], 16.4 mm; in [7], 19.6 mm; in [8], 17 mm; in experiment [9] it was 17.2 mm.
With `Cc1nn(-c2ccccc2)c(Cl)c1/C=C/C1=Cc2c(sc(N3C(=O)[C@@H](Oc4ccc(Cl)cc4Cl)[C@H]3c3ccccc3O)c2C#N)C(C)(C)C1` (relative stereo), the values for the inhibition at 200 µg/mL in [1] and in experiment [3] were 89% and 91%, respectively. For the same compound, the zone of inhibition at 1000 µg/mL is 18.9 mm in experiment [5]; 12.3 mm in experiment [6]; 11.6 mm in [7]; 17.6 mm in [8]; less than 10 mm in experiment [9].
As to `Cc1nn(-c2ccccc2)c(Cl)c1/C=C/C1=Cc2c(sc(N3C(=O)[C@@H](Oc4ccc(Cl)cc4Cl)[C@H]3c3ccc(Cl)c(Cl)c3)c2C#N)C(C)(C)C1` (relative stereo), the zone of inhibition at 1000 µg/mL is 11.2 mm in experiment [5]; less than 10 mm in experiment [6]; 10.8 mm in experiment [7]; 12 mm in experiment [8]; less than 10 mm in experiment [9].
Consider `COc1ccc([C@@H]2[C@H](Oc3ccc(Cl)cc3Cl)C(=O)N2c2sc3c(c2C#N)C=C(/C=C/c2c(C)nn(-c4ccccc4)c2Cl)CC3(C)C)cc1O` (relative stereo), for which the zone of inhibition at 1000 µg/mL in experiment [5] is less than 10 mm; in experiment [6], less than 10 mm; in [7] it was less than 10 mm; in [8], 13.7 mm; in [9], less than 10 mm.
Consider `Cc1nn(-c2ccccc2)c(Cl)c1/C=C/C1=Cc2c(sc(N3C(=O)[C@@H](Oc4ccc(Cl)cc4Cl)[C@H]3c3ccccc3)c2C#N)C(C)(C)C1` (relative stereo), for which the inhibition at 200 µg/mL was found to be 40% in [1] and 50% in experiment [4]. Besides, the zone of inhibition at 1000 µg/mL in experiment [5] was 11.7 mm; in [6] it was less than 10 mm; in experiment [7], 11.7 mm; in [8] it was 14.2 mm; in experiment [9], less than 10 mm.
In turn, `Cc1nn(-c2ccccc2)c(Cl)c1/C=C/C1=Cc2c(sc(N3C(=O)[C@@H](Oc4ccc(Cl)cc4Cl)[C@H]3c3ccc(Cl)cc3)c2C#N)C(C)(C)C1` (relative stereo) returned an inhibition at 200 µg/mL in experiment [1] of 35%. The zone of inhibition at 1000 µg/mL in experiment [5] is 12.4 mm; in [6] it was 10.6 mm; in [7], 11.2 mm; in experiment [8], 13.9 mm; in experiment [9], less than 10 mm.
Take `Cc1nn(-c2ccccc2)c(Cl)c1/C=C/C1=Cc2c(sc(N3C(=O)[C@@H](Oc4ccc(Cl)cc4Cl)[C@H]3c3ccc(N(C)C)cc3)c2C#N)C(C)(C)C1` (relative stereo): the zone of inhibition at 1000 µg/mL in experiment [5] was less than 10 mm; in [6], less than 10 mm; in [7] it was less than 10 mm; in experiment [8], 14.6 mm; in experiment [9] it was less than 10 mm.
As to `Cc1nn(-c2ccccc2)c(Cl)c1/C=C/C1=Cc2c(sc(N3C(=O)[C@@H](Oc4ccc(Cl)cc4Cl)[C@H]3c3ccccc3Cl)c2C#N)C(C)(C)C1` (relative stereo), the results for the inhibition at 200 µg/mL in experiment [1], in [2] and in experiment [3] were 92%, 40% and 94%, respectively. Also, the zone of inhibition at 1000 µg/mL in experiment [5] stood at 18.7 mm; in [6] it was 11.3 mm; in experiment [7] it was 10.6 mm; in [8], 17.8 mm; in experiment [9] it was 13.1 mm.
For `COc1ccc([C@@H]2[C@H](Oc3ccc(Cl)cc3Cl)C(=O)N2c2sc3c(c2C#N)C=C(/C=C/c2c(C)nn(-c4ccccc4)c2Cl)CC3(C)C)cc1` (relative stereo), the zone of inhibition at 1000 µg/mL in [5] was 12.5 mm; in [6], 11.3 mm; in experiment [7] it was 11.9 mm; in experiment [8], 15.6 mm; in [9] it was less than 10 mm. For the same compound, the inhibition at 200 µg/mL is 25% in experiment [2] and 30% in [3].

By inhibition is commonly meant how much of the control response was suppressed. Low values mean a response near the control, high ones a response far below the control.
